In US20100056631A1, “ANTIALLERGENIC COMPOSITION” (OPHTECS CORPORATION, priority 2006, published 2010):

Experiments:
[1] = test system: rat suffering from experimental allergenic conjunctivitis; experiment: Evaluation test of itching suppression effect in rat model of chronically allergic conjunctivitis; assay type: in vivo; conditions: 5 μl eye drops to both eyes 5 min before local sensitizing reagent (egg albumin), scratching observed 20 min, repeated 8 days, total for 8 days vs test formulation No. 1 (FIG. 1, 2; significant level of 5%)
Method: 0.6 ml of a primary sensitizing reagent (a solution prepared by dissolving 20 mg of egg albumin, 40 mg of aluminum hydroxide gel and 2×10^11 units of an inactivated pertussis antigen in physiological saline) was administered to the footpads of both hands and both feet of a rat by using a 24G injection needle. Five days after the administration of the primary sensitizing reagent, 1 ml of a secondary sensitizing reagent (a solution prepared by dissolving 50 mg of egg albumin in 100 ml of physiological saline) was injected hypodermically into the back portion of the rat by using a 27G injection needle. From 14-th to 42-th days after the administration of the primary sensitizing reagent, 5 μl of drops of a local sensitizing reagent (a solution prepared by dissolving 500 mg of egg albumin in 50 ml of physiological saline) was administered to the both eyes of the rat, and the rat was put in an observation cage to observe the “scratching” of the rat for 20 minutes right after the administration of the ophthalmic solution. The rat which took this action 10 times or more within 20 minutes was used as a “rat suffering from experimental allergenic conjunctivitis” in the experiment. […]

[2] = test system: rat administered with an ophthalmic solution of histamine; experiment: Effect of suppressing histamine-induced pruritus; assay type: in vivo; conditions: 5 μl eye drops to both eyes 5 min before histamine 10 μmol/5 μl; scratching observed 20 min (FIG. 4)
Method: In experiments on the evaluation of the effect of suppressing histamine-induced pruritus, test formulation No. 1 (0% of sodium D-3-hydroxybutyrate, referred to as PBS in FIG. 4) and test formulation No. 4 (1.0% of sodium D-3-hydroxybutyrate, referred to as 1% HBA in FIG. 4) shown in Table 1 and Intal (2% of sodium cromoglycate) and Livostin (0.025% of levocabastine hydrochloride) as Comparative formulation were used.
5 μl of an ophthalmic solution of the test formulation or Comparative formulation was administered to the both eyes of each rat each time. Five minutes after this, 10 μmol/5 μl of an ophthalmic solution of histamine was administered to one eye each time to induce pruritus in the rat. […] Meanwhile, Intal which is a chemical mediator isolation inhibitor was not effective (FIG. 4).

In the case of `C[C@@H](O)CC(=O)[O-].[Na+]` [Sodium D-3-hydroxybutyrate], the “number of times of scratching (itching suppression effect)” value [1] is reported as “suppressed the scratching of the rat suffering from an experimental allergy, dependent upon its volume”, the “number of times of scratching (itching suppression effect)” value ([1]; listed as sodium D-3-hydroxybutyrate) is reported as “excellent pruritus suppression effect” and the “scratching after histamine ophthalmic solution (effect of suppressing itching)” value [2] is reported as “excellent pruritus suppression effect”.
